These results are taken from US20090227575A1, “7H-PYRROLO[2,3-H]QUINAZOLINE COMPOUNDS, THEIR USE AS mTOR KINASE AND PI3 KINASE INHIBITORS, AND THEIR [sequence]” (Wyeth, priority 2008, published 2009).

One test has as its target PI3K-gamma (Homo sapiens, UniProt P48736). In words: PI3K-gamma fluorescence polarization assay. It counts as biochemical. The following applies: read-out: PI3 Kinase γ IC50. In outline:
(§1)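 Diluted enzyme and compound (1% DMSO) reacted with diC8 PIP2 and ATP substrate in 20 mM HEPES pH 7.5, 2 mM MgCl2, 0.05% CHAPS for 30–60 min. Stopped with EDTA buffer holding 10 nM TAMRA probe and 70 nM GST-GRP. FP (mP) read after 30–90 min against zero-time and no-enzyme controls.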
On the technique in general: In fluorescence polarisation assays a small probe gives low polarisation when free and higher when bound to something large.

In test [1] the test system is human prostate LNCap tumor cell line. In words: In vitro cell culture growth assay (MTS), LNCap. Format: cell-based. The conditions noted are these: 72 h, three days after drug treatment. As to the method: (§2) Cell Lines used are human prostate LNCap and human breast MDA468 tumor cell lines. Cells are plated in 96-well culture plates at approximately 3000 cells per well. […] Three days after drug treatment, viable cell densities are determined by cell mediated metabolic conversion of the dye MTS, a well-established indicator of cell proliferation in vitro. Cell growth assays are performed using kits purchased from Promega Corporation (Madison, Wis.), following the protocol provided by the vendor. Measuring absorbance at 490 nm generates MTS assay results. Compound effect on cell proliferation is assessed relative to untreated control cell growth.

Test [2] has as its system human breast MDA468 tumor cell line. In words: In vitro cell culture growth assay (MTS), MDA468. Format: cell-based. The conditions noted are these: 72 h, three days after drug treatment. As to the method:
as §2

The next test concerns the target human SMG-1 (hSMG-1) (Homo sapiens, UniProt Q96Q15). Description: hSMG-1 kinase assay (DELFIA). The conditions noted are these: read-out: hSMG1 IC50. It counts as biochemical.
The target in another test is PI3K-alpha (Homo sapiens, UniProt P42336). Description: PI3K-alpha fluorescence polarization assay. The conditions noted are these: read-out: PI3 Kinase α IC50. Format: biochemical. In outline:
as §1

In test [3] the target is T1, Human mTOR (Homo sapiens, UniProt P42345). In words: mTOR kinase assay (DELFIA format, purified enzyme). It counts as biochemical. Details: FLAG. The conditions noted are these: read-out: TOR Kinase IC50.
In test [4] the test system is human tumor xenograft models. The following applies: cited from earlier work.
The test system of test [5] is acute lymphoblastic leukemia xenograft. The conditions noted are these: NOS/SCID xenograft mouse model of acute lymphoblastic leukemia; cited from earlier work.
The next test has as its target hSMG-1 (Homo sapiens, UniProt Q96Q15). The conditions noted are these: read-out: hSMG-1 kinase activity IC50; cited from earlier work.
Test [6] concerns the target T1, Human mTOR. The conditions noted are these: read-out: mTOR enzymes IC50; cited from earlier work.

Read-outs that look alike come from different tables or passages of the source.

PI3K-gamma, sequence (P48736 whole entry, species assumed): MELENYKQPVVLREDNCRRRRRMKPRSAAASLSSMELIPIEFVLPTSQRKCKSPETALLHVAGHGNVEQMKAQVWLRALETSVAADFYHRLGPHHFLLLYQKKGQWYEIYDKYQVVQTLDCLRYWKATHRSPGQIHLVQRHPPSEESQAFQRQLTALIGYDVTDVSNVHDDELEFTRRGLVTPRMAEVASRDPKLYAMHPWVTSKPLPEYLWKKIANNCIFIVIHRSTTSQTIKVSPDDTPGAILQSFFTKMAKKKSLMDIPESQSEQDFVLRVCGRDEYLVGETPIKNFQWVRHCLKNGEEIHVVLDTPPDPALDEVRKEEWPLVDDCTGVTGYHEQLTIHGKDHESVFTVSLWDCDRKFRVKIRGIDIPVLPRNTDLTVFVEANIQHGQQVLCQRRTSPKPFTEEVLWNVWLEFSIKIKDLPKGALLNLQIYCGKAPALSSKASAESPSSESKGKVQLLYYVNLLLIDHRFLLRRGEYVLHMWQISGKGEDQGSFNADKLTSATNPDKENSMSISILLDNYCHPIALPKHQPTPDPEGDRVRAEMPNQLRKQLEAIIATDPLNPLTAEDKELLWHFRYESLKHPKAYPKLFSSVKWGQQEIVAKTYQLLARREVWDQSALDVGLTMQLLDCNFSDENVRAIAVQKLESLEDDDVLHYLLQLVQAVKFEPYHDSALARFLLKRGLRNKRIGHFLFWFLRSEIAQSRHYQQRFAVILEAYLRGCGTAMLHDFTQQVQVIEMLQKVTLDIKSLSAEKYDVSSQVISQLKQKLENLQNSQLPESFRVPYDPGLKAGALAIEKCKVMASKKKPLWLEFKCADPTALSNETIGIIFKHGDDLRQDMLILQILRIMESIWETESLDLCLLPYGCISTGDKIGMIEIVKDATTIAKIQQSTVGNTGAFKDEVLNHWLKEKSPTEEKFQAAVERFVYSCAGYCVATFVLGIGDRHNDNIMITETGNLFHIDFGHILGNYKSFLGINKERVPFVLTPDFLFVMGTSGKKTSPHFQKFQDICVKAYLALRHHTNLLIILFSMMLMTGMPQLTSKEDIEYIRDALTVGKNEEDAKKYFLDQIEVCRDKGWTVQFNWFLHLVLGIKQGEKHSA
human SMG-1 (hSMG-1), sequence (Q96Q15 whole entry): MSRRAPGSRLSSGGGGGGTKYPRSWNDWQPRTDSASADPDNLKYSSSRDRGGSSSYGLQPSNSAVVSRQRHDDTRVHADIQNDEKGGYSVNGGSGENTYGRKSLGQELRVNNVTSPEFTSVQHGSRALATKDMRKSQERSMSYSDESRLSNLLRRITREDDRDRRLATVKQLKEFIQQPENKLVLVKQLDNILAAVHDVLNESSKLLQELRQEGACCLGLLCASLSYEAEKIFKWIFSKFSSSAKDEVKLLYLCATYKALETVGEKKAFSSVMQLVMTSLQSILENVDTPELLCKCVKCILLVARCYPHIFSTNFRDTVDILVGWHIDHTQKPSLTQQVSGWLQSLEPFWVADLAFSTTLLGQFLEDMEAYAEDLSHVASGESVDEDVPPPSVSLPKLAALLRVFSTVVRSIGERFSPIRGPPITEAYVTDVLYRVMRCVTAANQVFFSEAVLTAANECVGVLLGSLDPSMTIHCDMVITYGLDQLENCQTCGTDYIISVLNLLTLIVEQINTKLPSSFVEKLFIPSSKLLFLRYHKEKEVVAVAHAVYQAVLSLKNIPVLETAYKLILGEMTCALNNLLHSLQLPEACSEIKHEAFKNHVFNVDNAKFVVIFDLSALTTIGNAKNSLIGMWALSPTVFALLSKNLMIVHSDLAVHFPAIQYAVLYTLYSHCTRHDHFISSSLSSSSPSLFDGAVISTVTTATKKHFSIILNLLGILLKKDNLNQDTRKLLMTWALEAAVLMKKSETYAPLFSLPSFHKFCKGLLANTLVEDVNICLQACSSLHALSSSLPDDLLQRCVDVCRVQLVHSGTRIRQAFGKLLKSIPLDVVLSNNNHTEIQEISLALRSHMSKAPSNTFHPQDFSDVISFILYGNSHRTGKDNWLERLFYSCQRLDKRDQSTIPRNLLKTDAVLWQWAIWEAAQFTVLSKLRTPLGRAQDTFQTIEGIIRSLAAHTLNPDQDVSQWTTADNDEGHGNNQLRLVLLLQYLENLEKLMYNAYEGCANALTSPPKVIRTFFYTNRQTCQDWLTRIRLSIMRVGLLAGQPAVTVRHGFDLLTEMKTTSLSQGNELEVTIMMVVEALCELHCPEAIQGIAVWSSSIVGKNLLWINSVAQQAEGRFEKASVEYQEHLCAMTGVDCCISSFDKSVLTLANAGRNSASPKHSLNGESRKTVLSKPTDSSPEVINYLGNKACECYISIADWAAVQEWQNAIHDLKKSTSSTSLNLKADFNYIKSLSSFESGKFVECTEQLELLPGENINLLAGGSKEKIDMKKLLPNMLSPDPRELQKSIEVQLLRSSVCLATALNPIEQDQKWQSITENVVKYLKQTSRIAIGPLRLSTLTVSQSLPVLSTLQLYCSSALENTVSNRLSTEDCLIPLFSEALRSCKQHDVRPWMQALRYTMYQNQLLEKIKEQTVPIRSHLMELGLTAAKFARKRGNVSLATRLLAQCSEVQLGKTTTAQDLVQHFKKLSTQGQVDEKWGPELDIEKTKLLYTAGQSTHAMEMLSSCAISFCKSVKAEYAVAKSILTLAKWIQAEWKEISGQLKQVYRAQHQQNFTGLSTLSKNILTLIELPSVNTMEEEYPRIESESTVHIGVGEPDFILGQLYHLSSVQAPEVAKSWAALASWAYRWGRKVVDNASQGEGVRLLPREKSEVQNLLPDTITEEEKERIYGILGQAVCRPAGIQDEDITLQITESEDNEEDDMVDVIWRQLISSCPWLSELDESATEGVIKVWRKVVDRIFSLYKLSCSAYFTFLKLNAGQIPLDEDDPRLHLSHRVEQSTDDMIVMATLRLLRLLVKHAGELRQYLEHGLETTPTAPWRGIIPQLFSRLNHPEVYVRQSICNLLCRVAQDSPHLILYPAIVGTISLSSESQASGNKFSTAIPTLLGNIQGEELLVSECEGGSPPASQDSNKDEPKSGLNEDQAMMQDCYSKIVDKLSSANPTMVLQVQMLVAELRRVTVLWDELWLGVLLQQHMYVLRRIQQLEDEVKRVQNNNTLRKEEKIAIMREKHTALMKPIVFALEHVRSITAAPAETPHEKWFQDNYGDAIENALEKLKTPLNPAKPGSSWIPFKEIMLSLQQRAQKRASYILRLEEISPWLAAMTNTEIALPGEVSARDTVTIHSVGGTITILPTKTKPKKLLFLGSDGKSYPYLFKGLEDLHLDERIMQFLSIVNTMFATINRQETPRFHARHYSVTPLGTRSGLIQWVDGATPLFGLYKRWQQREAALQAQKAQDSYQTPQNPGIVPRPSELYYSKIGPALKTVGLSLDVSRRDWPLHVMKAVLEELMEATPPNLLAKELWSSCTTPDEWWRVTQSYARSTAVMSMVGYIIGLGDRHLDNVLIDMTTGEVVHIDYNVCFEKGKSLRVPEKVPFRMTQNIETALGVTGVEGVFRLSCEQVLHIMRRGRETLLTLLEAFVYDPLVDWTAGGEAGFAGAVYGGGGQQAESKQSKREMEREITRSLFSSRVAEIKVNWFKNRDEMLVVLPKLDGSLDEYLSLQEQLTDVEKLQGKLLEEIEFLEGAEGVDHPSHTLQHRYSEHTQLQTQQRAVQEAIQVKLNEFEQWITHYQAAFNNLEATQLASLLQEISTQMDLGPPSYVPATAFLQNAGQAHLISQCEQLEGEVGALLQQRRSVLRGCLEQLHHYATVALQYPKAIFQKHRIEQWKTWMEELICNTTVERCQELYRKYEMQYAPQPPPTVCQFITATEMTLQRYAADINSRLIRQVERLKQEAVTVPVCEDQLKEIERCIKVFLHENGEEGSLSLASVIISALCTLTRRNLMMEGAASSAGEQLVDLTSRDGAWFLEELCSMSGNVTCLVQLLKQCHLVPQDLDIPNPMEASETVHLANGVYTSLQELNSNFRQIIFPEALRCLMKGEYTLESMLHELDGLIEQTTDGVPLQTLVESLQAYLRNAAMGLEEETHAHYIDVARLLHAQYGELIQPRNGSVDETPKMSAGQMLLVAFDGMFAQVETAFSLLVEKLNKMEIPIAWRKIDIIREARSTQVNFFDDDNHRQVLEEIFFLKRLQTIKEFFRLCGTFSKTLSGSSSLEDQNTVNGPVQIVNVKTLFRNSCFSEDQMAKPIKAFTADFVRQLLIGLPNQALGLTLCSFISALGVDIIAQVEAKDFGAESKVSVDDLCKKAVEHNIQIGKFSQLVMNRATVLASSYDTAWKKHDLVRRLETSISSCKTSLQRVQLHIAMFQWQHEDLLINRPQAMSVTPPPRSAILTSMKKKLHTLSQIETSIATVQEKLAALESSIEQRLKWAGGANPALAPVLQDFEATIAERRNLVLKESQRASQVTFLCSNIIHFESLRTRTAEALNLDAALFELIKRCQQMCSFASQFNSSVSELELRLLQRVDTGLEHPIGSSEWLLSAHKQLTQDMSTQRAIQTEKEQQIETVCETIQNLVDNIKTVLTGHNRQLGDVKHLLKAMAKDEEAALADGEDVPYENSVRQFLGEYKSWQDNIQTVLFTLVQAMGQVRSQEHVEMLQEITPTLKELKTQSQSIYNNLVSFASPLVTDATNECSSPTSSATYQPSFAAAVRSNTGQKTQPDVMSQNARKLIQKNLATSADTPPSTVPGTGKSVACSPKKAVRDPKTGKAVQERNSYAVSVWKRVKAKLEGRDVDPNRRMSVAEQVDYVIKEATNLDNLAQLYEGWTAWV
hSMG-1, sequence (Q96Q15 whole entry): as above

In the case of `CS(=O)(=O)n1ccc2c3nc(-c4ccc(NC(=O)Nc5cccnc5)cc4)nc(N4CCOCC4)c3ccc21` [Example 85, 1-{4-[7-(methylsulfonyl)-4-morpholin-4-yl-7H-pyrrolo[2,3-h]quinazolin-2-yl]phenyl}-3-pyridin-3-ylurea], the half-inhibitory concentration (IC50) (as a rule, the point on the concentration scale where inhibition reaches its midpoint) at PI3K-gamma was found to be 142 nM; in [1] it was 48 nM; in [2], 70 nM; on human SMG-1 (hSMG-1), 160 nM; on PI3K-alpha it was 22 nM.

`CCNC(=O)Nc1ccc(-c2nc(N3CCOCC3)c3ccc4c(ccn4S(C)(=O)=O)c3n2)cc1` [Example 89, 1-ethyl-3-{4-[7-(methylsulfonyl)-4-morpholin-4-yl-7H-pyrrolo[2,3-h]quinazolin-2-yl]phenyl}urea]: the IC50 in [1] was 690 nM; in test [2] it was 1900 nM; at human SMG-1 (hSMG-1), 200 nM.

As to `CNC(=O)Nc1ccc(-c2nc(N3CCOCC3)c3ccc4c(ccn4S(C)(=O)=O)c3n2)cc1` [Example 110, 1-methyl-3-{4-[7-(methylsulfonyl)-4-morpholin-4-yl-7H-pyrrolo[2,3-h]quinazolin-2-yl]phenyl}urea], the half-maximal inhibitory concentration (IC50) at PI3K-gamma was determined as 1910 nM; in test [1] it was 880 nM; in test [2], 1700 nM; on human SMG-1 (hSMG-1) it was 43 nM; at Human mTOR [3], 2 nM; at PI3K-alpha, 95 nM.

As to `CN(C)CCn1ccc2c3nc(-c4ccc(NC(=O)Nc5cccnc5)cc4)nc(N4CCOCC4)c3ccc21` [Example 111, 1-(4-{7-[2-(dimethylamino)ethyl]-4-morpholin-4-yl-7H-pyrrolo[2,3-h]quinazolin-2-yl}phenyl)-3-pyridin-3-ylurea], the half-inhibitory concentration (IC50) at PI3K-gamma is 860 nM; on human SMG-1 (hSMG-1), 290 nM; at Human mTOR [3], 15 nM; at PI3K-alpha, 118 nM.

As to `CNC(=O)Nc1ccc(-c2nc(N3CCOCC3)c3ccc4c(ccn4CCN(C)C)c3n2)cc1` [Example 113, 1-(4-{7-[2-(dimethylamino)ethyl]-4-morpholin-4-yl-7H-pyrrolo[2,3-h]quinazolin-2-yl}phenyl)-3-methylurea], the IC50 on PI3K-gamma was determined as 3090 nM; on human SMG-1 (hSMG-1), 490 nM; at Human mTOR [3], 67 nM; at PI3K-alpha it was 427 nM.

Consider `CCCNC(=O)Nc1ccc(-c2nc(N3CCOCC3)c3ccc4c(ccn4S(C)(=O)=O)c3n2)cc1` [Example 121, 1-{4-[7-(methylsulfonyl)-4-morpholin-4-yl-7H-pyrrolo[2,3-h]quinazolin-2-yl]phenyl}-3-propylurea], for which the concentration for half-maximal inhibition (IC50) was determined as 2000 nM in [1], 30000 nM in [2], 140 nM on human SMG-1 (hSMG-1) and 26 nM at Human mTOR [3].

`Cn1ccc2c3nc(-c4cccc(NC(=O)C5CC5)c4)nc(N4CCOCC4)c3ccc21` [Example 125, N-[3-(7-methyl-4-morpholin-4-yl-7H-pyrrolo[2,3-h]quinazolin-2-yl)phenyl]cyclopropanecarboxamide]: the 50% inhibitory concentration (IC50) at human SMG-1 (hSMG-1) was > 20000 nM; on Human mTOR [3] it was 1300 nM.

Turning to `CCCC(=O)Nc1cccc(-c2nc(N3CCOCC3)c3ccc4c(ccn4C)c3n2)c1` [Example 126, N-[3-(7-methyl-4-morpholin-4-yl-7H-pyrrolo[2,3-h]quinazolin-2-yl)phenyl]butanamide], the IC50 on human SMG-1 (hSMG-1) was > 20000 nM; on Human mTOR [3] it was 1900 nM.

As for `CCCNC(=O)Nc1cccc(-c2nc(N3CCOCC3)c3ccc4c(ccn4C)c3n2)c1` [Example 127, 1-[3-(7-methyl-4-morpholin-4-yl-7H-pyrrolo[2,3-h]quinazolin-2-yl)phenyl]-3-propylurea], the values for the IC50 on human SMG-1 (hSMG-1) and on Human mTOR [3] were 15500 nM and 1500 nM, respectively.

For the compound `CCNC(=O)Nc1cccc(-c2nc(N3CCOCC3)c3ccc4c(ccn4C)c3n2)c1` [Example 128, 1-ethyl-3-[3-(7-methyl-4-morpholin-4-yl-7H-pyrrolo[2,3-h]quinazolin-2-yl)phenyl]urea], the values for the IC50 at human SMG-1 (hSMG-1) and on Human mTOR [3] were > 20000 nM and 1800 nM, respectively.

Consider `CCC(=O)Nc1cccc(-c2nc(N3CCOCC3)c3ccc4c(ccn4C)c3n2)c1` [Example 129, N-[3-(7-methyl-4-morpholin-4-yl-7H-pyrrolo[2,3-h]quinazolin-2-yl)phenyl]propanamide], for which the half-inhibitory concentration (IC50) on human SMG-1 (hSMG-1) is > 20000 nM; on Human mTOR [3], 1500 nM.

Take `Cn1c(=O)n(-c2ccc(C(C)(C)C#N)cc2)c2c3cc(-c4cnc5ccccc5c4)ccc3ncc21` [NVP-BEZ-235, 2-methyl-2-(4-(3-methyl-2-oxo-8-(quinolin-3-yl)-2,3-dihydro-1H-imidazo[4,5-c]quinolin-1-yl)phenyl)propanenitrile]: the “activity against human tumor models” value in test [4] (prostrate (PC-3) and glioblastoma (U-87)) was “demonstrated activity”.

For the compound `Oc1cccc(-c2nc(N3CCOCC3)c3oc4ncccc4c3n2)c1` [PI103, 3-(4-(4-morpholinyl)pyrido[3′,2′:4,5]furo[3,2-d]pyrimidin-2-yl)phenol], in [4] (I.P. dosing in mice, U87MG, PC3, MDA-MB-468, MDA-MB-435, HCT 116, SKOV3, IGROV-1), the “activity against human tumor models” value is recorded as “demonstrated activity”.

On to `CO[C@H]1C[C@@H]2CC[C@@H](C)[C@@](O)(O2)C(=O)C(=O)N2CCCC[C@H]2C(=O)O[C@H]([C@H](C)C[C@@H]2CC[C@@H](OC(=O)C(C)(CO)CO)[C@H](OC)C2)CC(=O)[C@H](C)/C=C(\C)[C@@H](O)[C@@H](OC)C(=O)[C@H](C)C[C@H](C)/C=C/C=C/C=C/1C` [Torisel], for which, in test [5], the “activity in xenograft mouse model” value is given as “active”.

In the case of `COC[C@H]1OC(=O)c2coc3c2[C@@]1(C)C1=C(C3=O)[C@@H]2CCC(=O)[C@@]2(C)C[C@H]1OC(C)=O` [Wortmannin], the IC50 at hSMG-1 is ~0.06 µM.

Turning to `FC(F)c1nc2ccccc2n1-c1nc(N2CCOCC2)nc(N2CCOCC2)n1` [ZSTK474, 2-(2-difluoromethylbenzoimidazol-1-yl)-4,6-dimorpholino-1,3,5-triazine], in [4] (chronic oral administration, 400 mg/kg, A549, PC-3, WiDr), the tumor growth inhibition entry was “completely inhibited growth”. Further, at Human mTOR [6], the IC50 was > 10 µM.

With `Cn1c(=O)c2c(ncn2C)n(C)c1=O` [caffeine], the IC50 on hSMG-1 is 300 µM.
